What was measured:
[1] = system: PRRSV VR2332; assay: EC50 against VR-2332 strain on PAM cells; assay type: cell-based; details: Porcine reproductive and respiratory syndrome virus
Description: Supplementary Fig. 3: Cytotoxicity and Antiviral Efficacy of NTZ.
PRRSV capsid protein positive
(primary antibody SR30, green) and nuclei (DAPI, blue).

[2] = system: PRRSV GSWW-18 strain; assay: PRRSV transmission to co-housed pigs; assay type: in vivo, pig; details: 25 mg/kg, from 0 dpi; two co-house animals uninfected
Description: Although the replication mechanism of PRRSV in blood is not fully understood, viremia is an undoubted marker of disease severity[22],[23]. […] On the second day post-infection, we administered NTZ at dosages of 10 mg/kg or 5 mg/kg and monitored the dynamics of PRRSV in the blood within 24 h (Fig. 4b). We observed that NTZ acted swiftly. […] Further experiments explored NTZ’s role in viral transmission (Fig. 4c).
Fig. 4 NTZ inhibition of PRRSV shedding and transmission. a Viral load in blood, and shedding in oronasal and anal swabs. Viral load or shedding in blood and oronasal swabs were quantified from 2 to 4 dpi, and in anal swabs from 2 to 5 dpi. Viral copy numbers for each pig during this period are presented. b NTZ suppression of PRRSV proliferation in blood. […] Parameters were calculated using a non-compartmental analysis (NCA). Eighteen pigs were evenly divided into three dosage groups (n = 6), each housed separately, fasted for 12 h before the experiment, and monitored by professional veterinarians for welfare and enclosure cleaning to prevent coprophagia. g Tissue distribution of NTZ’s main metabolite TIZ. Tissues were collected as per Method Pharmacokinetics and Tissue Distribution of NTZ, quantifying TIZ content at various times (n = 2). […]

[3] = system: Nsp1α; assay: Differential scanning fluorimetry, purified Nsp1α; assay type: binding, PRRSV GSWW-18 strain; details: DSF
Description: (§1) For DSF, 20 μM purified NSP1α and NSP12 protein from the GSWW-18 strain, as well as NMRAL1 protein (Accession: A0A0D9R9W0) was thoroughly mixed with 20 μM SYPRO Orange (S6650, Thermo) in a buffer containing 10 mM HEPES and 200 mM NaCl at pH 7.20. An equal volume of 100 μM NTZ, dissolved in the same buffer, was added and the mixture was filtered through a 0.22 μm filter. For controls, an equivalent volume of DMSO was used. […] DSF experiments were monitored using the QuantStudio™ 5 Real-Time PCR System (Thermo). Data were analyzed using DSFworld[42].
Supplementary Fig. 10: The Affinity of Nsp1α and Nsp12 with TIZ is Lower Than That of NMRAL1.
(a) The KD value of NMRAL1 obtained through the Affinity fit model.
(b) The KD value of Nsp1α determined using the Kinetics fit model.
(c) The KD value of Nsp1α obtained through the Affinity fit model.

[4] = system: NSP12; assay: In vitro binding (DSF/CETSA) of NSP12 purified by inclusion bodies; parameters: species or system PRRSV GSWW-18 strain; details: NSP12 purified by IBs, different buffer systems
Description: as §1
'FT' is the flow-through after passing through the Ni column. 'Ni-200' and 'Ni-500' represent different purification conditions with varying concentrations. 'L2' is the total cell lysate after changing the expression conditions. 'S2' is the supernatant after cell lysis with changed expression conditions. The portions highlighted in red boxes indicate the target protein. […]
constant (KD) between Nsp1α and TIZ is lower than that of NMRAL1. We observe that […]
attempting different systems (Fig. R5 e-h). Although SPR confirms the interaction […]
possibly be attributed to the abnormal protein conformation of NSP12 purified by IBs. […]
(b) The KD value of Nsp1α determined using the Kinetics fit model. […]
(I) The KD value of Nsp12 determined using the Kinetics fit model. […]

Which EC50 [1] does the source give for `CC(=O)Oc1ccccc1C(=O)Nc1ncc([N+](=O)[O-])s1` [Nitazoxanide] here?
Its EC50 is ~670 nM.

What about the “PRRSV transmission to co-housed animals” value [2] of the same compound?
Its value is “can help limit PRRSV transmission”.

And the “decrease in the Tm value” [3]?
The value was 3.75 °C.

What about the “binding activity with NSP12 in vitro” value [4] of the same compound?
Its value is “did not exhibit binding activity”.

From paper PMC11156899, “High-throughput screening unveils nitazoxanide as a potent PRRSV inhibitor by targeting NMRAL1” (Nature Communications, 2024)
